Data: publication PMC6934184, “Selective DNA-PKcs inhibition extends the therapeutic index of localized radiotherapy and chemotherapy” (The Journal of Clinical Investigation, 2019)

Molecular target: T1, NEK7 (Homo sapiens, UniProt Q8TDX7)
T1 construct: purchased Thermo Fisher Scientific (Life Technologies) SelectScreen
Assay: SelectScreen Z'LYTE
Format: biochemical
Procedure, shortened: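 Percent values come from Thermo SelectScreen profiling of NU5455, combining activity and binding assays. CSF1R was run in Z'LYTE format at Km app ATP, and CAMK1 in Adapta format with ATP listed at 10.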

T1 sequence (Q8TDX7 whole entry): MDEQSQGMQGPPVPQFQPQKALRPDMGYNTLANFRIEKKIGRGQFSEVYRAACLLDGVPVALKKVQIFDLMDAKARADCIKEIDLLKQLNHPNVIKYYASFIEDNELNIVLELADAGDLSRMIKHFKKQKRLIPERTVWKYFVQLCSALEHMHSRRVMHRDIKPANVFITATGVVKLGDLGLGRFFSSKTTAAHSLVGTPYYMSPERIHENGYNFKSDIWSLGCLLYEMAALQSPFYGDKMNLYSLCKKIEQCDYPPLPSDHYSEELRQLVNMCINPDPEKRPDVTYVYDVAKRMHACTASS

`CN(C(=O)CN1CCOCC1)c1ccc2sc3c(-c4cccc5c(=O)cc(N6CC7CCC(C6)O7)oc45)cccc3c2c1` [NU5455] was tested, and the inhibition at 1 µM was -2.1%.
